# Assay results: ChEMBL document CHEMBL3430912, “GSK Tres Cantos Anti-Kinetoplastid Screening (TCAKS) Data”
# Assays:
# [1] = system: Trypanosoma cruzi; assay: GSK_TCAKS: pIC50 Trypanosoma cruzi viability assay using beta-GAL activity. This assay was run at single shot at 5uM compound concentration per well. The biological reagents consisted of NIH-3T3 host cells and trypomastigotes parasitic cells; both cell types were set to a 3.3 * 10^5 cells/mL dilution in assay DMEM by means of a CASY cell counter device using a 60um capillary. 6 uL of the mixture were dispensed per well (about 1 * 10^3 host-cells and 1 * 10^3 parasites) with a Multidrop Combi dispenser. […] In all wells, the percentage of DMSO never exceeded 0.5%. Plates incubated for four days at 37C, 5% CO2. The substrate used for the assay fluorescence intensity (FLINT) readout was resorufin-beta-D-galactopiranoside (Sigma-Aldrich) at 5uM per well. It was diluted in PBS supplemented with the soft detergent Igepal (Fluka).; format: functional, organism-based, Mus musculus; settings: Tulahuen, NIH3T3
# [2] = system: Trypanosoma cruzi; assay: (§1) GSK_TCAKS: pIC50 Trypanosoma cruzi Imaging: Infected Cells. […] Cells were then washed once with PBS before infection. T. cruzi trypomastigotes, collected at days 5 to 8 after infection from LLC-MK2 parasite infected cultures, were allowed to swim out for 4h at 37C from a centrifuged pellet (2,500 rpm/10 min/room temperature). Trypomastigotes were then collected and counted in a CASY Cell Counter. Trypomastigotes, in supplemented DMEM, were added to H9c2 cultures in a multiplicity of infection of 1 and incubated for 18 h. Cells were washed once with PBS before incubation of the infected H9c2 monolayer with trypsin (Life-Technologies) to detach cells from the flask. Cells were counted in a CASY Cell Counter using a 150 um capillary and their density set at 5 * 10^4 cells per mL in supplemented assay DMEM. Infected H9c2 were dispensed into 384-well poly-lysine coated assay plates at 50uL per well using a Multidrop Combi dispenser. After seeding them, the plates were incubated at 37C, 5% CO2 for 72h. Cultures were then fixed and stained by addition of 50 uL of a solution containing 8% formaldehyde and 4 uM DRAQ5 DNA dye (BioStatus, UK) per well. […] Five images were collected per well for reliable statistical analysis. Automated image analysis was performed with a script developed on Acapella High Content Imaging and Analysis Software (PerkinElmer). Output: percentage of infected cells per well as a second infection marker.; format: functional, organism-based, Rattus norvegicus; settings: H9c2, 4 h
# [3] = system: Trypanosoma cruzi; assay: GSK_TCAKS: pIC50 Trypanosoma cruzi Imaging: Amastigotes/Cell. […] Cells were then washed once with PBS before infection. T. cruzi trypomastigotes, collected at days 5 to 8 after infection from LLC-MK2 parasite infected cultures, were allowed to swim out for 4h at 37C from a centrifuged pellet (2,500 rpm/10 min/room temperature). Trypomastigotes were then collected and counted in a CASY Cell Counter. Trypomastigotes, in supplemented DMEM, were added to H9c2 cultures in a multiplicity of infection of 1 and incubated for 18 h. Cells were washed once with PBS before incubation of the infected H9c2 monolayer with trypsin (Life-Technologies) to detach cells from the flask. Cells were counted in a CASY Cell Counter using a 150 um capillary and their density set at 5 * 10^4 cells per mL in supplemented assay DMEM. Infected H9c2 were dispensed into 384-well poly-lysine coated assay plates at 50uL per well using a Multidrop Combi dispenser. After seeding them, the plates were incubated at 37C, 5% CO2 for 72h. Cultures were then fixed and stained by addition of 50 uL of a solution containing 8% formaldehyde and 4 uM DRAQ5 DNA dye (BioStatus, UK) per well. […] Five images were collected per well for reliable statistical analysis. Automated image analysis was performed with a script developed on Acapella High Content Imaging and Analysis Software (PerkinElmer). Output: number of amastigotes per cell as infection level measurement.; format: functional, organism-based, Rattus norvegicus; settings: H9c2, 4 h
# [4] = system: Leishmania donovani; assay: (§2) GSK_TCAKS: pIC50 Leishmania donovani Imaging: Infected Macrophages. Assay plates (384-well) were prepared by adding 250nL of compound to each well. For single shot assay, the final compound concentration was 5 uM. […] Automated image analysis was performed with a script developed on Acapella High Content Imaging and Analysis Software (PerkinElmer). Output: Percent of infected macrophage cells were reported for each well.; format: functional, organism-based, Homo sapiens; settings: THP-1
# [5] = system: Leishmania donovani; assay: as §2, with “Amastigotes/Macrophages.” for “Infected Macrophages.”, “Average number” for “Percent”, “amastigotes per” for “infected”, “cell” for “cells”; format: functional, organism-based, Homo sapiens; settings: THP-1
# [6] = system: Trypanosoma brucei brucei; assay: GSK_TCAKS: pIC50 Trypanosoma brucei viability assay using fluorescence intensity. Assay plates (1536-well) were prepared by dispensing 25nL of compound solution per well using an Echo acoustic dispenser (Labcyte).; format: functional, organism-based; settings: Lister 427, 2 h
# [7] = system: Trypanosoma brucei brucei; assay: GSK_TCAKS: pIC50 Trypanosoma brucei viability assay using luminiscence. Assay plates (1536-well) were prepared. T. brucei cultures were harvested and counted in a CASY cell counter. A parasite suspension was prepared at a final concentration of 5 * 10^4 cells/mL in complete HMI9 medium and 6uL was dispensed to all wells containing compounds using a Multidrop Combi dispenser. 6uL of HMI9 media with 0.4% DMSO were dispensed to control columns. Plates were incubated for 24 h at 37C, 5% CO2 then tempered for 10 min at room temperature. ATP content was quantified by adding 4 uL of CellTiter-Glo Reagent (Promega) according to the manufacturer's instructions. Luminescence was measured using a ViewLux.; format: functional, organism-based; settings: Lister 427, CASY
# [8] = GSK_TCAKS: pIC50 HepG2 human cell line viability assay using luminiscence. […] Seeding density was checked to ensure that new mono-layers were not more than 50% confluent at the time of harvesting. Cell suspension was added to 500 mL of the same medium at a final density of 1.2 * 10^5 cells/mL. This cell suspension was dispensed (25 uL, 3000 cells per well) into 384-well clear-bottom plates using a Multidrop Combi dispenser. Prior to addition of the cell suspension, the screening compounds (250 nL) were pre-dispensed into the plates with an Echo liquid handler. Plates were incubated for 48 h at 37C, 5% CO2. After incubation, plates equilibrated at room temperature for 30 min before proceeding to develop the luminescent signal. The signal developer, CellTiter-Glo Reagent, was allowed to equilibrate at room temperature for 30 min and added to the plates (25uL per well) using a Multidrop Combi dispenser. Plates were left for 10 min at room temperature for stabilization and then read using a ViewLux.; format: toxicity, cell-based
# [9] = biological target: Sterol 14-alpha demethylase (Trypanosoma cruzi (strain CL Brener), UniProt Q7Z1V1); assay: GSK_TCAKS: pIC50 CYP51 from Trypanosoma cruzi.; format: functional
# [10] = system: Leishmania donovani; assay: GSK_TCAKS: pIC50 Leishmania donovani viability assay using fluorescence intensity. Assay plates (1536-well) were prepared by adding 30nL per well of compound. For single shot assay, the final compound concentration was 5uM. […] Briefly, eGFP LdBOB axenic amastigotes were harvested, fixed and counted in a CASY cell counter (Roche-Applied Science). A final concentration of 1.5 * 10^5 cells per well were prepared in amastigote media containing 500 U/mL penicillin/streptomycin (Invitrogen) and 6uL was dispensed to each experimental well using a Multidrop Combi dispenser (Thermo Scientific). 6uL of assay media was dispensed to control columns used as reference for 100% compound response. Following incubation for 72 h at 37C, 5% CO2, 2 uL of resazurin was added to each well at a final concentration of 0.5 mM in phosphate buffered saline (PBS) with IGEPAL (Sigma-Aldrich), 0.05% (v/v).; format: functional, organism-based
# [11] = system: Leishmania donovani; assay: as §2, with “THP-1 Host” for “Infected”, “THP-1 cell count” for “Percent of infected macrophage cells”; format: functional, organism-based, Homo sapiens
# [12] = system: Trypanosoma cruzi; assay: as §1, with “H2C9” for “Trypanosoma cruzi”, “H9c2 Host Cardiomyocytes.” for “Infected Cells.”, “Number” for “percentage”, “H9c2 Host Cardiomyocytes nuclei to determine drug-related cytotoxicity.” for “infected cells per well as a second infection marker.”; format: functional, organism-based, Rattus norvegicus; settings: H9c2, 4 h
# Sterol 14-alpha demethylase, sequence (Q7Z1V1 whole entry): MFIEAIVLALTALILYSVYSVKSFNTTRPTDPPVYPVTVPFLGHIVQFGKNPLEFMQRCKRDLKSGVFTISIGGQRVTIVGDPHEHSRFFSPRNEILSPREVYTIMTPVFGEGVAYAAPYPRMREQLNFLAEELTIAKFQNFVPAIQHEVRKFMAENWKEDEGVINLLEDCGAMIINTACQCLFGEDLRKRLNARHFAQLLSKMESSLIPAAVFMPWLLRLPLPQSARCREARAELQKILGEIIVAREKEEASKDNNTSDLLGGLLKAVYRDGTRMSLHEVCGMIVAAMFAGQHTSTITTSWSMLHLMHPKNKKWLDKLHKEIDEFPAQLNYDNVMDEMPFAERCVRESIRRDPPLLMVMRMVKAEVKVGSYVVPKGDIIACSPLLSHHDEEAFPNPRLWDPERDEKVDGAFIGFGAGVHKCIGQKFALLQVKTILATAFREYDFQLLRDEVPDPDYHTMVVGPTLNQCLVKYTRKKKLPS
Structure (SMILES),IC50 [1] [µM],IC50 [2] [µM],IC50 [3] [µM],IC50 [4] [µM],IC50 [5] [µM],IC50 [6] [µM],IC50 [7] [µM],IC50 at 48 h [8] [µM],IC50 [9] [µM],IC50 [10] [µM],IC50 [11] [µM],IC50 [12] [µM]
CNS(=O)(=O)c1ccccc1Nc1nc(Nc2ccnn2C)ncc1Cl,0.398,1,0.631,0.631,0.398,0.0631,0.1,50.1,31.6,–,–,–
Cc1nn(-c2nc3ccccc3[nH]2)c2c1C(c1ccc(O)cc1)CC(=O)N2 (centres undefined),–,–,–,1,0.501,–,–,25.1,25.1,0.794,6.31,–
C=CC[C@@H]1CC=C[C@@H](C)N1C(=O)CCc1nnc(-c2ccc3c(c2)OCO3)o1,–,–,–,7.94,3.16,–,–,> 100,39.8,6.31,12.6,–
O=C1c2cnc(N3CCCC3)nc2CN1c1ccc2c(c1)OCO2,2.51,–,–,10,6.31,–,–,> 100,> 100,6.31,> 50.1,–
COc1ccccc1C(=O)Nc1nnc(-c2ccc3c(c2)OCO3)s1,2.51,–,–,1,0.631,–,–,> 100,> 100,1,15.8,–
CS(=O)(=O)c1ccc(Nc2nccc(-c3cnn4ncccc34)n2)cc1,2,25.1,1,2,1,0.158,0.2,15.8,15.8,0.794,–,5.01
N=C(N)Nc1nc(-c2ccc(NC(=N)NCCN3CCCC3)cc2)cs1,> 50.1,> 50.1,> 50.1,> 50.1,> 50.1,0.0398,0.1,> 100,–,> 50.1,> 50.1,> 50.1
[O-][s+]1nc(NCCCN(Cc2ccc(F)cc2)c2ccccn2)c(NCc2ccncc2)n1 (centres undefined),31.6,50.1,39.8,> 50.1,25.1,0.316,0.501,79.4,–,> 50.1,25.1,> 50.1
Oc1c(-c2nnc(Cc3ccc(F)cc3)[nH]2)ncc2cccnc12,0.158,–,–,1,1,–,–,25.1,> 100,0.126,20,–
Oc1c(-c2nnc(Cc3ccc(Cl)cc3)[nH]2)ncc2cccnc12,–,–,–,1.26,1,–,–,39.8,31.6,0.251,20,–
COc1ccc(Cc2nnc(-c3ncc4cccnc4c3O)[nH]2)cc1OC,1.26,–,–,3.16,2.51,–,–,50.1,> 100,0.316,20,–
c1ccc(-c2nc(NC3CCCCC3)cc(C3CC3)n2)nc1,–,–,–,3.98,3.16,–,–,39.8,> 100,0.794,20,–
